According to patent US11878966B2, “Substituted 4-benzyl and 4-benzoyl piperidine derivates” (89BIO LTD, priority 2015, dated 2024):

Target: T1, recombinant human baculovirus-expressed GST-tagged FASN (Homo sapiens, UniProt P49327)
T1 construct: GST; host or cells: baculovirus expression system (insect cells implied)
Test: FASN enzyme activity assay: fluorescence-based detection of CoA with CPM
Format: biochemical
Conditions: 5 nM FASN, 150 μM NADPH, 10 μM acetyl-CoA, 25 μM malonyl-CoA, 90 minutes incubation
From the text: FASN Enzyme activity may be determined by detecting coenzyme A (CoA), a product of FASN-catalyzed synthesis of palmitate from acetyl-CoA and malonyl-CoA with NADPH as a cofactor. The assay is fluorescence-based and measures the interaction of free CoA with 7-diethylamino-3-(4′-malemimidylphenyl)-4-methylcoumarin (CPM; Life Technologies, CA) as described in Chung et al (2008). The coumarin derivative CPM contains a thiol-reactive maleimide that becomes fluorescent upon interaction with the sulfhydryl group of CoA.
For the example compounds described herein, the reaction was performed in 384-well low volume non-binding platews (Corning, NY) using recombinant human baculovirus-expressed GST-tagged FASN. The 20-μL assay mixture contained 50 mM HEPES (pH 7.5), 5 nM FASN, 150 μM NADPH (Sigma, St. Louis, MO), 10 μM acetyl-CoA (Sigma), 25 μM malonyl-CoA (Sigma) and test compound [diluted in dimethyl sulfoxide (DMSO); 0.5% DMSO final in assay after 100 nL addition]. See, Chung et al.; “A fluorescence-based thiol quantification assay for ultra-high-throughput screening for inhibitors of coenzyme A production,” Assay Drug Dev Tech 2008; 6:361-374.
The reaction was initiated by adding malonyl-CoA, followed by incubation for 90 minutes at […]. A stock solution of the CPM reagent was prepared in DMSO al 66 μM and stored at […]. To detect CoA produced in the FASN reaction, the CPM stock was diluted to 50 μM in 70% ethanol and added at 4 μL/well to the assay place. The reaction mixture was then incubated for 30 minutes. Fluorescence was measured using the EnVision™ 2102 multi-label plate reader (PerkinElmer, Waltham, MA) utilizing a general dual mirror, a 390 nm excitation filter and a 530 nm emission filter. Data analysis was performed using ActivityBase (IDBS, Guilford, UK). IC50 values were calculated by plotting the percent inhibition versus log 10 of the concentration of the compound, and fitting to the nonlinear regression sigmoidal dose-response (variable slope) equation in XLFit (IDBS).

T1 sequence (P49327 whole entry): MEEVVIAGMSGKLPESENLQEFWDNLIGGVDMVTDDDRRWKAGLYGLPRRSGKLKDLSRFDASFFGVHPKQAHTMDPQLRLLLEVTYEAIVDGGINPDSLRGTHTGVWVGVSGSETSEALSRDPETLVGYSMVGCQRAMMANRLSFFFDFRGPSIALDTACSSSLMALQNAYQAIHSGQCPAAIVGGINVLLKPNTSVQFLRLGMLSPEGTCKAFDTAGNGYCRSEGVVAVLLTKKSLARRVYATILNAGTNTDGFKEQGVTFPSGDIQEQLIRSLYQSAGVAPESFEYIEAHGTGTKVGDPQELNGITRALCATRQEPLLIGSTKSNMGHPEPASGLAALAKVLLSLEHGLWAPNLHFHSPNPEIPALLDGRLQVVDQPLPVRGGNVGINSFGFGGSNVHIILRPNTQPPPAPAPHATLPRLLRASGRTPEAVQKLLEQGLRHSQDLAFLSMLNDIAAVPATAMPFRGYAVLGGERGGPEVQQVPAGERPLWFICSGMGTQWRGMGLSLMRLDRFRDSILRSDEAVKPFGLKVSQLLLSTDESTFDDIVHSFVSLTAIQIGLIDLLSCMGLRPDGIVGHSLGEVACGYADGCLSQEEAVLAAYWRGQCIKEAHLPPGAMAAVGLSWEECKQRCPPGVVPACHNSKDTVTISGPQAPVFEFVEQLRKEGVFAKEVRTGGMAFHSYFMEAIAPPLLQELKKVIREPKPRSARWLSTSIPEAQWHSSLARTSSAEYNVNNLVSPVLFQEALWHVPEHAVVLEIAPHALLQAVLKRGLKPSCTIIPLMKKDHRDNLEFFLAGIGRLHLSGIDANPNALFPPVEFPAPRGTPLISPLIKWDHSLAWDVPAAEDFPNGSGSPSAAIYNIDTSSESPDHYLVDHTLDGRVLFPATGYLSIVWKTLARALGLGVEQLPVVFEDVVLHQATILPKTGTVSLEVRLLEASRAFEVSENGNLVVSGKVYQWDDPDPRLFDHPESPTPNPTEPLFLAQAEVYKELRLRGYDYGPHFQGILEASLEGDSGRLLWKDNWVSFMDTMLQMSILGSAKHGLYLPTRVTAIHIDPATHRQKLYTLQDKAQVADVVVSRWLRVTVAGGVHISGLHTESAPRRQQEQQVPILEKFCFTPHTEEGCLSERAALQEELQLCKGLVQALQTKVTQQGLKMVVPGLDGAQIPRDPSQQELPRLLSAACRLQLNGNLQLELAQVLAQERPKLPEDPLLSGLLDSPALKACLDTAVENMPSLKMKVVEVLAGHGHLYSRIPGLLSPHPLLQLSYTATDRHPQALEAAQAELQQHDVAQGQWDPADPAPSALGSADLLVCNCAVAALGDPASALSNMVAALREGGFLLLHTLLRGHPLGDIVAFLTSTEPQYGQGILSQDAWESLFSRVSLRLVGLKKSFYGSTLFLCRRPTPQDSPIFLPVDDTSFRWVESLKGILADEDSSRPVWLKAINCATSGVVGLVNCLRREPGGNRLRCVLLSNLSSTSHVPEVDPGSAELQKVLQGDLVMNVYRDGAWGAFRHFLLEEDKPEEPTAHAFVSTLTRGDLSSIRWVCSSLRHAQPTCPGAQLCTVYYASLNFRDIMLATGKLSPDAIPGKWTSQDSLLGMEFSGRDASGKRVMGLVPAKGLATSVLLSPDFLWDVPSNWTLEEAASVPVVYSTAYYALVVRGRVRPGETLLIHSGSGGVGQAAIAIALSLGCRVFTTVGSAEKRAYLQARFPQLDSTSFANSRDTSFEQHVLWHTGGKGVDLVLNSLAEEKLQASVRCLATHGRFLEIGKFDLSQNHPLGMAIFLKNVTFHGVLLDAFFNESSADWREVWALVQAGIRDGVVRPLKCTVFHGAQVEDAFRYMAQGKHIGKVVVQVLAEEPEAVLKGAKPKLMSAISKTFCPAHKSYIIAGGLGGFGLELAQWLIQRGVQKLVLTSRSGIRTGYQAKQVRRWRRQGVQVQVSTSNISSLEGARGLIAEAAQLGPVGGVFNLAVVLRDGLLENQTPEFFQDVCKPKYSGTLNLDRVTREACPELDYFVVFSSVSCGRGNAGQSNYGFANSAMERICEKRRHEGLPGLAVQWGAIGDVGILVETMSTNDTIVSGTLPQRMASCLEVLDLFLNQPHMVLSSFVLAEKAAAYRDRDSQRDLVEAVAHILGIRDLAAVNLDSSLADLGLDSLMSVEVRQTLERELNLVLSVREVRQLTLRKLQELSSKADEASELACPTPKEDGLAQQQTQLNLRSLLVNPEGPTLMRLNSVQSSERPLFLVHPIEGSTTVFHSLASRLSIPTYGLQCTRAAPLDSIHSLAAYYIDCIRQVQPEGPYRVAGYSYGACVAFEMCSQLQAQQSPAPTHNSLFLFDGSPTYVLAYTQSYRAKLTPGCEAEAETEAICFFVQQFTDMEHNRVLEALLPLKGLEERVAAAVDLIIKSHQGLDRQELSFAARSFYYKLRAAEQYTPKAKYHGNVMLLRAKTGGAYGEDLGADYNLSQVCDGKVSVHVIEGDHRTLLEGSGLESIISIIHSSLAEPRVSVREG

SMILES	IC50 [nM]
CCC(=O)N1CCC(C(C)c2ccc(-c3ccc4cccnc4c3C)cc2)CC1 (centres unmarked) [Example 62, 1-(4-{1-[4-(8-methylquinolin-7-yl)-phenyl]-ethyl}-piperidin-1-yl)-propan-1-one]	1 to 99
Cc1c(-c2ccc(C(C)C3CCN(C(=O)C4CC4)CC3)cc2)ccc2cccnc12 (centres unmarked) [Example 63, Cyclopropyl-(4-{1-[4-(8-methylquinolin-7-yl)-phenyl]-ethyl}-piperidin-1-yl)-methanone]	1 to 99
CCC(=O)N1CCC(C(C)c2ccc(-c3ccc4cccnc4c3OC)cc2)CC1 (centres unmarked) [Example 64, 1-(4-{1-[4-(8-Methoxyquinolin-7-yl)-phenyl]-ethyl}-piperidin-1-yl)-propan-1-one]	1 to 99
CCC(=O)N1CCC(C(C)c2ccc(-c3cnc4ccccc4c3C)cc2)CC1 (centres unmarked) [Example 65, 1-(4-{1-[4-(4-Methylquinolin-3-yl)-phenyl]-ethyl}-piperidin-1-yl)-propan-1-one]	1 to 99
COc1c(-c2ccc(C(C)C3CCN(C(=O)C4CC4)CC3)cc2)ccc2cccnc12 (centres unmarked) [Example 66, Cyclopropyl-(4-{1-[4-(8-methoxyquinolin-7-yl)-phenyl]-ethyl}-piperidin-1-yl)-methanone]	1 to 99
CCC(=O)N1CCC(C(C)c2ccc(-c3ccc4cccnc4c3Cl)cc2)CC1 (centres unmarked) [Example 72, 1-(4-{1-[4-(8-chloroquinolin-7-yl)-phenyl]-ethyl}-piperidin-1-yl)-propan-1-one]	1 to 99
CC(c1ccc(-c2ccc3cccnc3c2Cl)cc1)C1CCN(C(=O)C2CC2)CC1 (centres unmarked) [Example 73, (4-{1-[4-(8-Chloroquinolin-7-yl)-phenyl]-ethyl}-piperidin-1-yl)-cyclopropylmethanone]	1 to 99
CCC(=O)N1CCC(C(C)c2ccc(-c3cnc4ccccc4c3Cl)cc2)CC1 (centres unmarked) [Example 75, 1-(4-{1-[4-(4-Chloroquinolin-3-yl)-phenyl]-ethyl}-piperidin-1-yl)-propan-1-one]	1 to 99
Cc1c(-c2ccc(C3(C4CCN(C(=O)[C@H]5CCCO5)CC4)CC3)cc2)ccc2cccnc12 [Example 79, (4-{1-[4-(8-Methylquinolin-7-yl)-phenyl]-cyclopropyl}-piperidin-1-yl)-(R)-tetrahydrofuran-2-yl-methanone]	1000 to 10000
CCC(=O)N1CCC(C(OCCOC)c2ccc(-c3ccc4cccnc4c3C)cc2)CC1 (centres unmarked) [Example 81, 1-(4-{(2-Methoxyethoxy)-[4-(8-methyl-quinolin-7-yl)-phenyl]-methyl}-piperidin-1-yl)-propan-1-one]	1 to 99
CCC(=O)N1CCC(C#N)(Cc2ccc(-c3ccc4cccnc4c3OC)cc2)CC1 [Example 92, 4-[4-(8-methoxyquinolin-7-yl)-benzyl]-1-propionylpiperidine-4-carbonitrile]	1 to 99
Cc1c(-c2ccc(CC3CCN(C(=O)[C@H]4CCCO4)CC3)cc2)ccc2nccn12 [Example 93, {4-[4-(5-Methyl-imidazo[1,2-a]pyridin-6-yl)-benzyl]-piperidin-1-yl}-(R)-tetrahydrofuran-2-yl-methanone]	1 to 99
CCC(=O)N1CCC(Cc2ccc(-c3ccc4nccn4c3C)cc2)CC1 [Example 94, 1-{4-[4-(5-Methylimidazo[1,2-a]pyridin-6-yl)-benzyl]-piperidin-1-yl}-propan-1-one]	100 to 999
Cc1c(-c2ccc(CC3CCN(C(=O)C4CC4)CC3)cc2)ccc2nccn12 [Example 95, Cyclopropyl-{4-[4-(5-methylimidazo[1,2-a]pyridin-6-yl)-benzyl]-piperidin-1-yl}-methanone]	100 to 999
Cc1c(-c2ccc(CC3CCN(C(=O)C4(O)CC4)CC3)cc2)ccc2nccn12 [Example 96, (1-Hydroxycyclopropyl)-{4-[4-(5-methylimidazo[1,2-a]pyridin-6-yl)-benzyl]-piperidin-1-yl}-methanone]	1 to 99
Cc1c(-c2ccc(CC3(F)CCN(C(=O)[C@H]4CCCO4)CC3)cc2)ccc2nccn12 [Example 97, (R)-(4-fluoro-4-(4-(5-methylimidazo[1,2-a]pyridin-6-yl)benzyl)piperidin-1-yl)(tetrahydrofuran-2-yl)methanone]	1 to 99
O=C(N1CCC(C2(c3ccc(-c4ccc5ncccc5c4)cc3)OCCO2)CC1)C(F)(F)F [Example 98, 2,2,2-Trifluoro-1-{4-[2-(4-quinolin-6-yl-phenyl)-1,3-dioxolan-2-yl]-piperidin-1-yl}-ethanone]	1000 to 10000
O=C(C1CC1)N1CCC(C2(c3ccc(-c4ccc5ncccc5c4)cc3)OCCO2)CC1 [Example 99, Cyclopropyl-{4-[2-(4-quinolin-6-yl-phenyl)-1,3-dioxolan-2-yl]-piperidin-1-yl}-methanone]	1000 to 10000
CN(C)S(=O)(=O)N1CCC(C2(c3ccc(-c4ccc5ncccc5c4)cc3)OCCO2)CC1 [Example 100, 4-[2-(4-Quinolin-6-yl-phenyl)-1,3-dioxolan-2-yl]-piperidine-1-sulfonic acid dimethylamide]	1000 to 10000
CCOC(=O)N1CCC(C2(c3ccc(-c4ccc5ncccc5c4)cc3)OCCO2)CC1 [Example 101, 4-[2-(4-Quinolin-6-yl-phenyl)-1,3-dioxolan-2-yl]-piperidine-1-carboxylic Acid Ethyl Ester]	1000 to 10000

Next, values leading:

IC50 [nM]	SMILES
100 to 999	CCC(=O)N1CCC(C(c2ccc(-c3cnc4ccccc4c3)cc2)C(C)C)CC1 (centres unmarked) [Example 61, 1-{4-[2-Methyl-1-(4-quinolin-3-yl-phenyl)-propyl]-piperidin-1-yl}-propan-1-one]
1 to 99	CC(c1ccc(-c2cnc3ccccc3c2Cl)cc1)C1CCN(C(=O)C2CC2)CC1 (centres unmarked) [Example 76, (4-{1-[4-(4-Chloroquinolin-3-yl)-phenyl]-ethyl}-piperidin-1-yl)-cyclopropylmethanone]
1000 to 10000	Cc1nccc2cc(-c3ccc(C4(C5CCN(C(=O)[C@H]6CCCO6)CC5)CC4)cc3)ccc12 [Example 78, (4-{1-[4-(1-Methylisoquinolin-6-yl)-phenyl]-cyclopropyl}-piperidin-1-yl)-(R)-tetrahydrofuran-2-yl-methanone]
1 to 99	COCCOC(c1ccc(-c2ccc3cccnc3c2C)cc1)C1CCN(C(=O)[C@H]2CCCO2)CC1 (stereo partly drawn) [Example 80, (4-{(2-Methoxyethoxy)-[4-(8-methyl-quinolin-7-yl)-phenyl]-methyl}-piperidin-1-yl)-(R)-tetrahydrofuran-2-yl-methanone]
1 to 99	COCCOC(c1ccc(-c2cnc3ccccc3c2C)cc1)C1CCN(C(=O)[C@H]2CCCO2)CC1 (stereo partly drawn) [Example 83, (4-{(2-Methoxyethoxy)-[4-(4-methyl-quinolin-3-yl)-phenyl]-methyl}-piperidin-1-yl)-(R)-tetrahydrofuran-2-yl-methanone]
1 to 99	Cc1c(-c2ccc(C(OCCCN3CCOCC3)C3CCN(C(=O)[C@H]4CCCO4)CC3)cc2)ccc2cccnc12 (stereo partly drawn) [Example 84, {4-[[4-(8-Methylquinolin-7-yl)-phenyl]-(3-morpholin-4-yl-propoxy)-methyl]-piperidin-1-yl}-(R)-tetrahydrofuran-2-yl-methanone]
1 to 99	CCC(=O)N1CCC(C(OCCCN2CCOCC2)c2ccc(-c3ccc4cccnc4c3C)cc2)CC1 (centres unmarked) [Example 85, 1-{4-[[4-(8-Methylquinolin-7-yl)-phenyl]-(3-morpholin-4-yl-propoxy)-methyl]-piperidin-1-yl}-propan-1-one]
100 to 999	Cc1nccc2cc(-c3ccc(C(OCCCN4CCOCC4)C4CCN(C(=O)[C@H]5CCCO5)CC4)cc3)ccc12 (stereo partly drawn) [Example 86, {4-[[4-(1-Methylisoquinolin-6-yl)-phenyl]-(3-morpholin-4-yl-propoxy)-methyl]-piperidin-1-yl}-(R)-tetrahydrofuran-2-yl-methanone]
1 to 99	Cc1c(-c2ccc(C(OCCCN3CCOCC3)C3CCN(C(=O)[C@H]4CCCO4)CC3)cc2)cnc2ccccc12 (some centres unmarked) [Example 87]
100 to 999	O=C([C@H]1CCCO1)N1CCC(C(OCCN2CCCC2)c2ccc(-c3cnc4ccccc4c3)cc2)CC1 (stereo partly drawn) [Example 88, {4-[(2-Pyrrolidin-1-yl-ethoxy)-(4-quinolin-3-yl-phenyl)-methyl]-piperidin-1-yl}-(R)-tetrahydrofuran-2-yl-methanone]
1 to 99	Cc1c(-c2ccc(C(OCCN3CCCC3)C3CCN(C(=O)[C@H]4CCCO4)CC3)cc2)ccc2cccnc12 (stereo partly drawn) [Example 89, {4-[[4-(8-Methylquinolin-7-yl)-phenyl]-(2-pyrrolidin-1-yl-ethoxy)-methyl]-piperidin-1-yl}-(R)-tetrahydrofuran-2-yl-methanone]
100 to 999	Cc1nccc2cc(-c3ccc(C(OCCN4CCCC4)C4CCN(C(=O)[C@H]5CCCO5)CC4)cc3)ccc12 (stereo partly drawn) [Example 90, {4-[[4-(1-Methylisoquinolin-6-yl)phenyl]-(2-pyrrolidin-1-yl-ethoxy)-methyl]-piperidin-1-yl}-(R)-tetrahydrofuran-2-yl-methanone]
